Data from patent US20080234130A1, “Compositions providing tolerance to multiple herbicides and methods of use thereof” (priority 2005, published 2008).

Assays:
[1] = tested on: parent elite stiff stalk inbred corn; assay: Preemergence effect of ALS herbicides (fresh weight, visual injury); settings: 200 g/ha, mean of four replications; for % Visual Injury Patent elite stiff stalk inbred: 4 weeks after treatment, 0% no injury, 100% plant death; for Fresh Weight (g) patent elite stiff stalk inbred: fresh shoots 4 weeks after treatment, untreated 36.7 g
[2] = tested on: heterozygous GAT-HRA corn; assay: as above; settings: 200 g/ha, mean of four replications; for % Visual Injury Heterozygous GAT-HRA: 4 weeks after treatment, 0% no injury, 100% plant death; for Fresh Weight (g) Heterozygous GAT-HRA: fresh shoots 4 weeks after treatment, untreated 47.0 g
[3] = tested on: heterozygous GAT-HRA corn; assay: Postemergence effect of ALS herbicides, glyphosate and glufosinate (fresh weight, visual injury); settings: 200 g/ha (glyphosate 3472 g ae/ha, glufosinate ammonium 1870 g/ha), mean of four replications; for % Visual Injury Heterozygous GAT-HRA: 2 weeks after treatment, 0% no injury, 100% plant death; for Fresh Weight (g) Heterozygous GAT-HRA: applied two weeks after planting, fresh shoots 2 weeks after treatment, untreated 98.8 g
[4] = tested on: parent elite stiff stalk inbred corn; assay: as above; settings: 200 g/ha (glyphosate 3472 g ae/ha, glufosinate ammonium 1870 g/ha), mean of four replications; for % Visual Injury Parent elite stiff stalk inbred: 2 weeks after treatment, 0% no injury, 100% plant death; for Fresh Weight (g) Parent elite stiff stalk inbred: applied two weeks after planting, fresh shoots 2 weeks after treatment, untreated 76.4 g

Structure (SMILES)	% Visual Injury Patent elite stiff stalk inbred [1]	% Visual Injury Heterozygous GAT-HRA [2]	% Visual Injury Heterozygous GAT-HRA [3]	% Visual Injury Parent elite stiff stalk inbred [4]	Fresh Weight (g) patent elite stiff stalk inbred [1]	Fresh Weight (g) Heterozygous GAT-HRA [2]	Fresh Weight (g) Heterozygous GAT-HRA [3]	Fresh Weight (g) Parent elite stiff stalk inbred [4]
COC(=O)c1ccccc1CS(=O)(=O)NC(=O)Nc1nc(OC)cc(OC)n1 [Bensulfuron-methyl, methyl 2-[[[[[(4,6-dimethoxy-2-pyrimidinyl)amino]carbonyl]amino]sulfonyl]methyl]benzoate]	23%	10%	14%	93%	–	–	–	–
COc1nc(C)nc(NC(=O)NS(=O)(=O)c2ccccc2Cl)n1 [Chlorsulfuron, 2-chloro-N-[[(4-methoxy-6-methyl-1,3,5-triazin-2-yl)amino]-carbonyl]benzenesulfonamide]	100%	33%	13%	100%	–	–	–	–
CCOc1nc(NC)nc(NC(=O)NS(=O)(=O)c2ccccc2C(=O)OC)n1 [Ethametsulfuron-methyl, methyl 2-[[[[[4-ethoxy-6-(methylamino)-1,3,5-triazin-2-yl]amino]carbonyl]amino]sulfonyl]benzoate]	100%	88%	6%	96%	1.6 g	50.1 g	98.0 g	5.6 g
CCOc1ccccc1OS(=O)(=O)NC(=O)Nc1nc(OC)cc(OC)n1 [Ethoxysulfuron, 2-ethoxyphenyl[[(4,6-dimethoxy-2-pyrimidinyl)amino]carbonyl]sulfamate]	63%	25%	15%	88%	–	–	–	–
COc1nn(C(=O)NS(=O)(=O)c2ccccc2OC(F)(F)F)c(=O)n1C [Flucarbazone Na^+, 4,5-dihydro-3-methoxy-4-methyl-5-oxo-N-[[2-(trifluoromethoxy)phenyl]sulfonyl]-1H-1,2,4-triazole-1-carboxamide]	100%	40%	14%	100%	–	–	–	–
Cc1ccn2nc(S(=O)(=O)Nc3c(F)cccc3F)nc2n1 [Flumetsulam, N-(2,6-difluorophenyl)-5-methyl[1,2,4]triazolo[1,5-a]pyrimidine-2-sulfonamide]	13%	13%	3%	85%	–	–	–	–
COc1cc(OC)nc(NC(=O)NS(=O)(=O)c2cc(NC=O)ccc2C(=O)N(C)C)n1 [Foramsulfuron, 2-[[[[(4,6-dimethoxy-2-pyrimidinyl)amino]carbonyl]amino]sulfonyl]-4-(formylamino)-N,N-dimethylbenzamide]	5%	7%	8%	28%	–	–	–	–
CP(=O)(O)CCC(N)C(=O)O (stereo not drawn) [Glufosinate ammonium]	–	–	1%	99%	–	–	112.3 g	2.4 g
COC(=O)c1c(Cl)nn(C)c1S(=O)(=O)NC(=O)Nc1nc(OC)cc(OC)n1 [Halosulfuron-methyl, methyl 3-chloro-5-[[[[(4,6-dimethoxy-2-pyrimidinyl)amino]-carbonyl]amino]sulfonyl]-1-methyl-1H-pyrazole-4-carboxylate]	30%	15%	8%	14%	–	–	–	–
COCc1cnc(C2=NC(C)(C(C)C)C(=O)N2)c(C(=O)O)c1 (stereo not drawn) [Imazamox]	99%	13%	4%	100%	0.8 g	47.5 g	90.9 g	2.2 g
